Test results taken from US20250302839A1 (D&D Biopharmaceuticals, Inc., priority 2024, published 2025).

Legend:
human donor cornea [1] = experiment: Pre- and post-treatment evaluation of corneal integrity (epithelium, stroma, endothelium; specular microscopy); conditions: 10 mg/ml glutaric anhydride in 0.3M sodium phosphate buffer (pH 8.5), 60 seconds
Experimental: The agent used in this example was glutaric anhydride (GA). Paired human donor corneas were evaluated prior to treatment and immediately after treatment for intact epithelium, stroma, and endothelium. Riboflavin fluorescence for the GA treatment and the non-GA treatment control were compared. The test human cornea sample was labeled 21-095656 OD, and the control human cornea sample was labeled 21-095656 OS.
One pair human corneas were recovered by in situ removal by a certified eyebank technician and placed in LIFE4° C. and stored in Bausch & Lomb 20 ml viewing chambers, and stored at 2-8° C. Corneas were shipped on wet ice overnight to the treatment facility. Upon arrival, the corneas were warmed for 2±2 hours at 35° C. and evaluated for corneal integrity. […] At the time of the study, corneas were warmed for 2±2 hours at 35° C., and evaluated for corneal integrity.
The control and treated cornea samples were placed in a petri dish with the epithelial side up in a laminar flow hood with enough Life4° C. corneal preservation medium to fill the endothelial side of the human cornea with medium. […] Each sample was analyzed before treatment (FIGS. 1A-1C).
A single examiner performed all measurements. Corneal endothelium was evaluated utilizing a Konan Eyebank KeratoAnalyzer. […] Number of cells analyzed. • 8. […]

human donor cornea [2] = experiment: Penetration of riboflavin into human donor cornea, evaluated by fluorescence microscopy; assay type: in vitro ADME

| SMILES | effect on corneal epithelium, stroma and endothelium post-treatment (human donor cornea [1]) | disruption of corneal cell junctures permitting riboflavin diffusion (human donor cornea [2]; 10 mg/ml glutaric anhydride in 0.3M sodium phosphate buffer (pH 8.5), 1.0 ml for 60 seconds, continuous drops) | time until riboflavin fluorescence was exhibited (human donor cornea [2]; test cornea 21-095656 OD, after 10 mg/ml buffered glutaric anhydride solution for 60 seconds, riboflavin 1.46 mg/ml in PBS, 2 x 0.5 mL, intact epithelium) [min] |
| --- | --- | --- | --- |
| O=C1CCCC(=O)O1 [glutaric anhydride] | did not adversely affect the corneal epithelium, stroma or endothelium | disrupt cell junctures to permit diffusion of riboflavin through the epithelium and deep into the corneal stroma |  |
| Cc1cc2nc3c(=O)[nH]c(=O)nc-3n(C[C@H](O)[C@H](O)[C@H](O)CO)c2cc1C [riboflavin, reference compound] |  |  | ≤ 2 |
